According to article PMC3357308 (Diabetes, 2012):

Tests used:
[1] = system: 11β-reductase and 11β-dehydrogenase activities; experiment: Cortisol/cortisone interconversion in subcutaneous adipose and skeletal muscle; type: in vivo, human; settings: arteriovenous difference adjusted for blood flow, n = 6; for Ra (net Ra for cortisone), skeletal muscle release: forearm
human 11βHSD1 [2] = target: T1, human 11βHSD1 (Homo sapiens, UniProt P28845); experiment: Competition with [3H]2-cortisone in HEK293/h11βHSD1 cells; type: cell-based; settings: [3H]2-cortisone 5 nmol/L, competitor 0–4,955 nmol/L, 6–24 h
T1 sequence (P28845 whole entry): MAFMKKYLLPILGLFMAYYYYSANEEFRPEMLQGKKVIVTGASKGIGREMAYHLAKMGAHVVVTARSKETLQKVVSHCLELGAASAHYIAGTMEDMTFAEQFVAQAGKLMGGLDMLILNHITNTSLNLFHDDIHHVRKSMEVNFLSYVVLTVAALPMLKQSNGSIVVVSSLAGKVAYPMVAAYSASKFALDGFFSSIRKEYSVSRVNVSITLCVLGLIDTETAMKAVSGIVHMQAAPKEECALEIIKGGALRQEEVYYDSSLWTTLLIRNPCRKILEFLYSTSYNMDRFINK

[3] = In vivo pharmacokinetics of d2-cortisone after intravenous bolus; parameters: species or system human; settings: iv bolus 141 μg
human 11βHSD1 [4] = target: T1, human 11βHSD1; type: cell-based; settings: HEK293/h11βHSD1 cells, substrate 2 μmol/L, 1–24 h, n = 6
11βHSD1 = settings: in vivo, d4-cortisol tracer; cited from earlier work
[5] = system: 11β-reductase and 11β-dehydrogenase activities; experiment: Cortisol/cortisone interconversion in the splanchnic circulation; type: in vivo, human; settings: adjusted for hepatic blood flow, n = 4
11β-dehydrogenase [6] = settings: extrapolated from generation of d3-cortisone, non–steady-state, adjusted for substrate concentration and volume of distribution; cited from earlier work
11β-dehydrogenase [7] = experiment: Primed 3-h d2-cortisone infusion before and after licorice; settings: without licorice, whole body, steady state, n = 3

SMILES: [2H]C1([2H])[C@H](O)[C@@]2([2H])[C@@H](CCC3=CC(=O)CC[C@@]32C)[C@@H]2CC[C@](O)(C(=O)CO)[C@]21C [d3-cortisol]
- Ra (net Ra for cortisone), skeletal muscle release [1]: 5.9 ± 1.8 pmol/100 mL/min

SMILES: [2H]C1C(=O)C=C2CC[C@H]3[C@@H]4CC[C@](O)(C(=O)CO)[C@@]4(C)CC(=O)[C@@H]3[C@@]2(C)C1[2H] (some centres unmarked) [d2-cortisone, 1,2-[^2H]2-Cortisone]
- Vmax for formation of [3H]2-cortisol in the presence of the steroid (human 11βHSD1 [2]): 0.83 ± 0.34 pmol/10^5 cells/min
- time tracer could be detected after injection ([3]; blood): 1.5 h
- area under the curve ([3]; n = 3): 494 nmol/L per min
- production of d2-cortisol or cortisol from the substrate (human 11βHSD1 [4]): 0.17 ± 0.05 pmol/10^5 cells/min

SMILES: C[C@]12CCC(=O)C=C1CC[C@@H]1[C@@H]2[C@@H](O)C[C@@]2(C)[C@H]1CC[C@]2(O)C(=O)CO [cortisol]
- Ra (net Ra for cortisone), skeletal muscle release [1]: 19.7 ± 4.1 pmol/100 mL/min
- cortisol released by subcutaneous adipose 11βHSD1 (11βHSD1): ~15 pmol/100 g tissue/min

SMILES: C[C@]12CCC(=O)C=C1CC[C@@H]1[C@@H]2C(=O)C[C@@]2(C)[C@H]1CC[C@]2(O)C(=O)CO [cortisone]
- Ra (net Ra for cortisone), splanchnic release [5]: 19.5 ± 2.8 nmol/min
- Vmax for formation of [3H]2-cortisol in the presence of the steroid (human 11βHSD1 [2]): 0.73 ± 0.26 pmol/10^5 cells/min
- Ra (net Ra for cortisone), subcutaneous adipose release [1]: 38.7 ± 5.8 pmol/100 g/min
- Ra (net Ra for cortisone), skeletal muscle release [1]: 15.2 ± 5.8 pmol/100 mL/min
- cortisone production rate (11β-dehydrogenase [6]): 24 nmol/min
- Net Ra of cortisone (11β-dehydrogenase [7]): 36 nmol/min
- production of d2-cortisol or cortisol from the substrate (human 11βHSD1 [4]): 0.41 ± 0.15 pmol/10^5 cells/min
